A word on the IC50: it is the midpoint of a concentration-inhibition curve.

The source of these data is patent US20160237044A1, “SUBSTITUTED PHENYLALANINE DERIVATIVES” (BAYER PHARMA AKTIENGESELLSCHAFT, priority 2013, published 2016).

One assay has as its target T1, human factor XIa (Homo sapiens, UniProt P03951).
T1 construct: purchased Kordia
As to the kind of experiment: Measurement of FXIa inhibition (fluorogenic peptide substrate Boc-Glu(OBzl)-Ala-Arg-AMC). It is filed as biochemical. The procedure:
a.1) Measurement of FXIa Inhibition
The factor XIa inhibition of the substances according to the invention is determined using a biochemical test system which utilizes the reaction of a peptidic factor XIa substrate to determine the enzymatic activity of human factor XIa. Here, factor XIa cleaves from the peptic factor XIa substrate the C-terminal aminomethylcoumarin (AMC), the fluorescence of which is measured. The determinations are carried out in microtitre plates.
In each case 1 μl of the diluted substance solutions is placed into the wells of white microtitre plates from Greiner (384 wells). […] After 15 min of incubation, the enzyme reaction is started by addition of 20 μl of the factor XIa substrate Boc-Glu(OBzl)-Ala-Arg-AMC dissolved in assay buffer (10 μM in assay buffer) from Bachem, the mixture is incubated at room temperature (22° C.) for 30 min and fluorescence is then measured (excitation: 360 nm, emission: 460 nm). The measured emissions of the test batches with test substance are compared to those of control batches without test substance (only dimethyl sulphoxide instead of test substance in dimethyl sulphoxide), and IC50 values are calculated from the concentration/activity relationships.

The subject of a further assay is plasma. As to the kind of experiment: Determination of anticoagulatory activity: activated partial thromboplastin time (aPTT) in plasma. It is filed as biochemical, human. Conditions: concentration of test substance which brings about a 1.5-fold extension of the aPTT, C.K. Prest kit, 37° C. How it is done: a.4) Determination of Anticoagulatory Activity
The anticoagulatory activity of the test substances is determined in vitro in human and animal plasma (for example mouse, rat, rabbit, pig and dog plasma). To this end, blood is drawn off in a mixing ratio of sodium citrate/blood of 1:9 using a 0.11 molar sodium citrate solution as receiver. Immediately after the blood has been drawn off, it is mixed thoroughly and centrifuged at about 4000 g for 15 minutes. The supernatant is pipetted off.
The activated partial thromboplastin time (aPTT) is determined in the presence of varying concentrations of test substance or the corresponding solvent using a commercial test kit (C.K. Prest from Diagnostica Stago). The test compounds are incubated with the plasma and the PTT reagent (cephalin, kaolin) at 37° C. for 3 minutes. Coagulation is then started by addition of a 25 mM aqueous calcium chloride solution, and the time when coagulation occurs is determined. The concentration of test substance which brings about a 1.5-fold extension of the aPTT is determined.

[1] abbreviates: factor XIa from Kordia, 15 min preincubation, 30 min at 22° C., fluorescence, read-out: IC50.

Counter-ions that a name gives are not always drawn. Like-named read-outs stand apart in the source and are kept apart here.

T1 sequence (P03951 388-625 limits assumed): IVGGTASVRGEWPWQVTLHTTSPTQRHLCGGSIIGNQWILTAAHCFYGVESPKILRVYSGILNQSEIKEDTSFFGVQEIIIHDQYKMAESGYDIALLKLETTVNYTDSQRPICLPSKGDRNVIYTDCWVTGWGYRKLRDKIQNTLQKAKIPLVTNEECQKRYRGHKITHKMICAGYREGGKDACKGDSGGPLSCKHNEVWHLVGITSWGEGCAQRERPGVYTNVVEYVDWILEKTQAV
T1 sequence (P03951 19-387 partner limits assumed): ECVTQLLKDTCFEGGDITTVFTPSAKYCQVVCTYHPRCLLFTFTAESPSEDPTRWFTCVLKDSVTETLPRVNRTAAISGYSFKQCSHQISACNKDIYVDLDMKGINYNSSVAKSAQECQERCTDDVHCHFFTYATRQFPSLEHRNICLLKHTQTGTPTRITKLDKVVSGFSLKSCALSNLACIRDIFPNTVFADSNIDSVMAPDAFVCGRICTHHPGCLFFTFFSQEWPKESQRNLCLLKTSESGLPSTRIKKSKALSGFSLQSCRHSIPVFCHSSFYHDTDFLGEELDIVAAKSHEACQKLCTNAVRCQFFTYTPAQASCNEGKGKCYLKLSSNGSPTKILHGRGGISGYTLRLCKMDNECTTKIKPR

In the case of `COc1ccc(-c2ccc(C[C@H](NC(=O)[C@H]3CC[C@H](CN)CC3)C(=O)Nc3ccc(-c4nn[nH]n4)cc3)cc2)c(C(F)(F)F)c1` [Example 27, trans-4-(Aminomethyl)-N-[(2S)-3-[4′-methoxy-2′-(trifluoromethyl)biphenyl-4-yl]-1-oxo-1-{[4-(2H-tetrazol-5-yl)phenyl]amino}propan-2-yl]cyclohexanecarboxamide hydrochloride], the IC50 on human factor XIa (setting [1]) came out at 4.5 nM. Also, in the assay with plasma, the “Concentration for 1.5-fold aPTT extension” value worked out at 0.21 µmol/L.

Consider `Cc1cc(S(=O)(=O)N[C@@H]2CCNC2)ccc1-c1ccc(C[C@H](NC(=O)[C@H]2CC[C@H](CN)CC2)C(=O)Nc2ccc(-c3nn[nH]n3)cc2)cc1` [Example 16, trans-4-(Aminomethyl)-N-[(2S)-3-{2′-methyl-4′-[(3R)-pyrrolidin-3-ylsulphamoyl]biphenyl-4-yl}-1-oxo-1-{[4-(2H-tetrazol-5-yl)phenyl]amino}propan-2-yl]cyclohexanecarboxamide hydrochloride], for which the IC50 at human factor XIa (setting [1]) came to 1.3 nM. The “Concentration for 1.5-fold aPTT extension” value in the assay on plasma stood at 0.11 µmol/L.

Regarding `NC[C@H]1CC[C@H](C(=O)N[C@@H](Cc2ccc(-c3ccc(S(=O)(=O)NCCO)cc3)cc2)C(=O)Nc2ccc(-c3nnc(Cl)[nH]3)cc2)CC1` [Example 19, trans-4-(Aminomethyl)-N-[(2S)-1-{[4-(5-chloro-4H-1,2,4-triazol-3-yl)phenyl]amino}-3-{4′-[(2-hydroxyethyl)sulphamoyl]biphenyl-4-yl}-1-oxopropan-2-yl]cyclohexanecarboxamide hydrochloride], on human factor XIa (setting [1]), the IC50 was 2.3 nM. In the assay with plasma, the “Concentration for 1.5-fold aPTT extension” value was 0.16 µmol/L.

With `COCCOc1ccc(-c2ccc(C[C@H](NC(=O)[C@H]3CC[C@H](CN)CC3)C(=O)Nc3ccc(-c4nn[nH]n4)cc3)cc2)cc1` [Example 3, trans-4-(Aminomethyl)-N-[(2S)-3-[4′-(2-methoxyethoxy)biphenyl-4-yl]-1-oxo-1-{[4-(2H-tetrazol-5-yl)phenyl]amino}propan-2-yl]cyclohexanecarboxamide hydrochloride], at human factor XIa (setting [1]), the IC50 came out at 8.1 nM.

In the case of `Cc1cc(S(=O)(=O)N(C)C)ccc1-c1ccc(C[C@H](NC(=O)[C@H]2CC[C@H](CN)CC2)C(=O)Nc2ccc(-c3nn[nH]n3)c(F)c2)cc1` [Example 24, trans-4-(Aminomethyl)-N-[(2S)-3-[4′-(dimethylsulphamoyl)-2′-methylbiphenyl-4-yl]-1-{[3-fluoro-4-(2H-tetrazol-5-yl)phenyl]amino}-1-oxopropan-2-yl]cyclohexanecarboxamide hydrochloride], at human factor XIa (setting [1]), the IC50 stood at 0.4 nM. Moreover, the “Concentration for 1.5-fold aPTT extension” value with plasma amounted to 0.27 µmol/L.

As to `Cc1cc(S(=O)(=O)N(C)C)ccc1-c1ccc(C[C@H](NC(=O)[C@H]2CC[C@H](CN)CC2)C(=O)Nc2ccc3c(=O)[nH][nH]c3c2)cc1` [Example 13, trans-4-(Aminomethyl)-N-{(2S)-3-[4′-(dimethylsulphamoyl)-2′-methylbiphenyl-4-yl]-1-oxo-1-[(3-oxo-2,3-dihydro-1H-indazol-6-yl)amino]propan-2-yl}cyclohexanecarboxamide hydrochloride], the IC50 at human factor XIa (setting [1]) was 3.1 nM. Besides, in the assay with plasma, the “Concentration for 1.5-fold aPTT extension” value is 0.07 µmol/L.

Take `Cc1cc(S(=O)(=O)NC(C)C)ccc1-c1ccc(C[C@H](NC(=O)[C@H]2CC[C@H](CN)CC2)C(=O)Nc2ccc3c(=O)[nH][nH]c3c2)cc1` [Example 14, trans-4-(Aminomethyl)-N-{(2S)-3-[4′-(isopropylsulphamoyl)-2′-methylbiphenyl-4-yl]-1-oxo-1-[(3-oxo-2,3-dihydro-1H-indazol-6-yl)amino]propan-2-yl}cyclohexanecarboxamide hydrochloride]: on human factor XIa (setting [1]), the IC50 was 3.2 nM.

Consider `CC(=O)Nc1ccc(-c2ccc(C[C@H](NC(=O)[C@H]3CC[C@H](CN)CC3)C(=O)Nc3ccc(-c4nn[nH]n4)cc3)cc2)cc1F` [Example 26, trans-N-[(2S)-3-(4′-Acetamido-3′-fluorobiphenyl-4-yl)-1-oxo-1-{[4-(2H-tetrazol-5-yl)phenyl]-amino}propan-2-yl]-4-(aminomethyl)cyclohexanecarboxamide hydrochloride], for which the IC50 on human factor XIa (setting [1]) worked out at 4.7 nM. Moreover, the “Concentration for 1.5-fold aPTT extension” value in the assay on plasma is 0.4 µmol/L.

Consider `CN1CCN(c2ccc(-c3ccc(C[C@H](NC(=O)[C@H]4CC[C@H](CN)CC4)C(=O)Nc4ccc(-c5nn[nH]n5)cc4)cc3)cc2)CC1` [Example 4, trans-4-(Aminomethyl)-N-[(2S)-3-[4′-(4-methylpiperazin-1-yl)biphenyl-4-yl]-1-oxo-1-{[4-(2H-tetrazol-5-yl)phenyl]amino}propan-2-yl]cyclohexanecarboxamide hydrochloride], for which the IC50 at human factor XIa (setting [1]) came to 18 nM.

For the compound `NC[C@H]1CC[C@H](C(=O)N[C@@H](Cc2ccc(-c3ccc(S(N)(=O)=O)cc3)cc2)C(=O)Nc2ccc(-c3nnc(Cl)[nH]3)cc2)CC1` [Example 22, trans-4-(Aminomethyl)-N-[(2S)-1-{[4-(3-chloro-4H-1,2,4-triazol-5-yl)phenyl]amino}-1-oxo-3-(4′-sulphamoylbiphenyl-4-yl)propan-2-yl]cyclohexanecarboxamide hydrochloride], the half-maximal inhibitory concentration (IC50) at human factor XIa (setting [1]) came to 1.5 nM. In addition, the “Concentration for 1.5-fold aPTT extension” value in the assay on plasma was 0.25 µmol/L.

As for `NC[C@H]1CC[C@H](C(=O)N[C@@H](Cc2ccc(-c3ccc(N4CCNCC4)cc3)cc2)C(=O)Nc2ccc(-c3noc(=O)[nH]3)cc2)CC1` [Example 6, trans-4-(Aminomethyl)-N-{(2S)-1-oxo-1-{[4-(5-oxo-4,5-dihydro-1,2,4-oxadiazol-3-yl)phenyl]amino}-3-[4′-(piperazin-1-yl)biphenyl-4-yl]propan-2-yl}cyclohexanecarboxamide hydrochloride], on human factor XIa (setting [1]), the IC50 was 24 nM.

On to `NC[C@H]1CC[C@H](C(=O)N[C@@H](Cc2ccc(-c3ccc(N4CCNCC4)cc3)cc2)C(=O)Nc2ccc(-c3nn[nH]n3)cc2)CC1` [Example 2, trans-4-(Aminomethyl)-N-[(2S)-1-oxo-3-[4′-(piperazin-1-yl)biphenyl-4-yl]-1-{[4-(2H-tetrazol-5-yl)phenyl]amino}propan-2-yl]cyclohexanecarboxamide hydrochloride], for which the IC50 at human factor XIa (setting [1]) came out at 4.3 nM.

For the compound `NC[C@H]1CC[C@H](C(=O)N[C@@H](Cc2ccc(-c3ccc(N4CCOCC4)cc3)cc2)C(=O)Nc2ccc(-c3nn[nH]n3)cc2)CC1` [Example 5, trans-4-(Aminomethyl)-N-[(2S)-3-[4′-(morpholin-4-yl)biphenyl-4-yl]-1-oxo-1-{[4-(2H-tetrazol-5-yl)phenyl]amino}propan-2-yl]cyclohexanecarboxamide hydrochloride], it took 5.7 nM to reach half-maximal inhibition at human factor XIa (IC50).

Regarding `COC(=O)c1ccc(-c2ccc(C[C@H](NC(=O)[C@H]3CC[C@H](CN)CC3)C(=O)Nc3ccc(-c4nn[nH]n4)cc3)cc2)cc1` [Example 7, Methyl 4′-[(2S)-2-({[trans-4-(aminomethyl)cyclohexyl]carbonyl}amino)-3-oxo-3-{[4-(2H-tetrazol-5-yl)phenyl]amino}propyl]biphenyl-4-carboxylic acid hydrochloride], the IC50 on human factor XIa (setting [1]) worked out at 3.6 nM.

As to `Cc1cc(NC(=O)CNC(=O)CNC(=O)CN)ccc1-c1ccc(C[C@H](NC(=O)[C@H]2CC[C@H](CN)CC2)C(=O)Nc2ccc(-c3nn[nH]n3)cc2)cc1` [Example 9, Glycylglycyl-N-{4′-[(2S)-2-({[trans-4-(aminomethyl)cyclohexyl]carbonyl}amino)-3-oxo-3-{[4-(2H-tetrazol-5-yl)phenyl]amino}propyl]-2-methylbiphenyl-4-yl}glycinamide hydrochloride], the IC50 at human factor XIa (setting [1]) is 8.4 nM.
